Reference: US6784137B2, “6-aryl-4-aminopicolinates and their use as herbicides” (Dow AgroSciences LLC, priority 2001, dated 2004)

Assays:
[1] = system: Barnyardgrass (Echinochloa crus-galli); assay: Postemergence herbicidal activity, greenhouse spray; type: in vivo; settings: Echinochloa crus-galli, post-emergence, 336 h, Table 1, visual score after 2 weeks, read-out: Post-emergent % control ECHCG; for pest or weed control at 500 ppm: rate 500 ppm
In short: (§1)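 Postemergence application by compressed-air atomizer ([…]) onto plants at the 1-2 true leaf stage; rates set by serial dilution of acetone:DMSO stock into the spray carrier. Plants were kept in a greenhouse with ~15 hr photoperiod and sub-irrigated.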

[2] = system: Cocklebur (Xanthium strumarium); assay: as above; type: in vivo; settings: Xanthium strumarium, post-emergence, 336 h, Table 1, visual score after 2 weeks, read-out: Post-emergent % control XANST; for pest or weed control at 500 ppm: rate 500 ppm, 0 no injury, 100 complete kill
In short: as §1

[3] = system: Lambsquarter (Chenopodium album); assay: as above; type: in vivo; settings: Chenopodium album, post-emergence, 336 h, Table 1, visual score after 2 weeks, read-out: Post-emergent % control CHEAL; for pest or weed control at 500 ppm: rate 500 ppm
In short: as §1

[4] = system: Pigweed (redroot) (Amaranthus retroflexus); assay: as above; type: in vivo; settings: visual score after 2 weeks; for pest or weed control at 62.5 µg/mL: Amaranthus retroflexus, post-emergence, 336 h, Table 3, rate 62.5 (unit inferred), read-out: Post-emergent % control AMARE; for Post-emergent % control AMARE: Table 4, rate 62.5 (unit not given)
In short: as §1

[5] = system: Yellow nutsedge (Cyperus esculentus); assay: as above; type: in vivo; settings: Cyperus, post-emergence, 336 h, Table 1, visual score after 2 weeks, read-out: Post-emergent % control CYPES; for pest or weed control at 500 ppm: rate 500 ppm
In short: as §1

[6] = system: Wheat(var. Merica) (Triticum aestivum); assay: Postemergence herbicidal activity, selectivity to wheat; type: in vivo; settings: post-emergence, 336 h, Table 3, rate 62.5 (unit inferred), crop injury, read-out: Post-emergent % control TRZAS
Procedure: (§2) Seeds of the desired test plant species were planted in Grace-Sierra MetroMix® 306 planting mixture, which typically has a pH of 6.0 to 6.8 and an organic matter content of about 30 percent, in plastic pots with a surface area of 64 square centimeters. When required to ensure good germination and healthy plants, a fungicide treatment and/or other chemical or physical treatment was applied. The plants were grown for 7-21 days in a greenhouse with an approximate 15 hr photoperiod which was maintained at about 23-29° C. during the day and 22-28° C. during the night. Nutrients and water were added on a regular basis and supplemental lighting was provided with overhead metal halide 1000-Watt lamps as necessary. The plants were employed for testing when they reached the first or second true leaf stage. A weighed amount, determined by the highest rate to be tested, of each test compound was placed in a 20 mL glass vial and was dissolved in 4 mL of a 97:3 v/v (volume/volume) mixture of acetone and dimethyl sulfoxide (DMSO) to obtain concentrated stock solutions. […] The concentrated stock solutions obtained were diluted with an aqueous mixture containing acetone, water, isopropyl alcohol, DMSO, At plus 411 F crop oil concentrate, and Triton X-155 surfactant in a 48.5:39:10:1.5:1.0:0.02 v/v ratio to obtain spray solutions of known concentration. The solutions containing the highest concentration to be tested were prepared by diluting 2 mL aliquots of the stock solution with 13 mL of the mixture and lower concentrations were prepared by serial dilution of the stock solution. Approximately 1.5 mL aliquots of each solution of known concentration were sprayed evenly onto each of the test plant pots using a DeVilbiss atomizer driven by compressed air pressure of […] (140 to 280 kiloPascals) to obtain thorough coverage of each plant. Control plants were sprayed in the same manner with the aqueous mixture. In this test an application rate of 1 ppm results in the application of approximately 1 g/Ha. The treated plants and control plants were placed in a greenhouse as described above and watered by sub-irrigation to prevent wash-off of the test compounds. After 2 weeks the condition of the test plants as compared with that of the untreated plants was determined visually and scored on a scale of 0 to 100 percent where 0 corresponds to no injury and 100 corresponds to complete kill.

[7] = system: Corn (#14 3377) (Zea mays); assay: Postemergence herbicidal activity, selectivity to corn; type: in vivo; settings: post-emergence, 336 h, Table 4, rate 62.5 (unit inferred), crop injury, read-out: Post-emergent % control ZEAMX
Procedure: as §2

[8] = system: Crabgrass(large) (Digitaria sanguinalis); assay: Preemergence herbicidal activity, soil spray; type: in vivo; settings: Digitaria sanguinalis, pre-emergence, 504 h; Table 5; rate 560 ppm; visual score after 3 weeks; read-out: Pre-emergent % control DIGSA
In short: (§3)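 Test species were planted first, then the soil of each pot was sprayed with compound solutions of known concentration made in water containing 0.1% Tween 155 from acetone–DMSO stocks. The growth matrix was a 70:30 loam and sand blend with pH near 8.1.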

[9] = system: Giant Foxtail (Setaria faberi); assay: Preemergence herbicidal activity, soil spray; type: in vivo; settings: Setaria faberi, pre-emergence, 504 h, Table 5; rate 560 ppm; visual score after 3 weeks; read-out: Pre-emergent % control SETFA
In short: as §3

[10] = system: Lambsquarter (Chenopodium album); assay: Preemergence herbicidal activity, soil spray; type: in vivo; settings: Chenopodium album, pre-emergence, 504 h; Table 5; rate 560 ppm; visual score after 3 weeks, 100 complete kill or no germination; read-out: Pre-emergent % control CHEAL
In short: as §3

[11] = system: Pigweed (redroot) (Amaranthus retroflexus); assay: Preemergence herbicidal activity, soil spray; type: in vivo; settings: Amaranthus retroflexus, pre-emergence, 504 h; Table 5; rate 560 ppm; visual score after 3 weeks; read-out: Pre-emergent % control AMARE
In short: as §3

SMILES | pest or weed control at 500 ppm [1] [%] | pest or weed control at 500 ppm [2] [%] | pest or weed control at 500 ppm [3] [%] | pest or weed control at 62.5 µg/mL [4] [%] | Post-emergent % control AMARE [4] [%] | pest or weed control at 500 ppm [5] [%] | pest or weed control at 62.5 µg/mL [6] [%] | pest or weed control at 62.5 µg/mL [7] [%] | pest or weed control at 560 ppm [8] [%] | pest or weed control at 560 ppm [9] [%] | pest or weed control at 560 ppm [10] [%] | pest or weed control at 560 ppm [11] [%] | melting point [°C] | pest or weed control at 250 ppm ([1]; rate 250 ppm) [%] | pest or weed control at 250 ppm ([2]; rate 250 ppm) [%] | pest or weed control at 250 ppm ([3]; rate 250 ppm) [%] | pest or weed control at 250 ppm ([5]; rate 250 ppm) [%]
COC(=O)c1nc(-c2ccc(F)cc2)cc(N)c1Cl [Compound 43, Methyl 4-amino-3-chloro-6-(4-fluorophenyl)pyridine-2-carboxylate] | 95 | 100 | 100 | 100 | 100 | 100 | 10 | 0 | 100 | 98 | 100 | 100 | 125 | – | – | – | –
COC(=O)c1nc(-c2cccc(C)c2)cc(N)c1Cl [Compound 21, Methyl 4-amino-3-chloro-6-(3-methylphenyl)pyridine-2-carboxylate] | – | – | – | 70 | 70 | – | 10 | 0 | 100 | 80 | 100 | 100 | 98 | 0 | 100 | 100 | 70
COC(=O)c1nc(-c2ccc(C)c(C)c2)cc(N)c1Cl [Compound 12, methyl 4-amino-3-chloro-6-(3,4-dimethylphenyl)pyridine-2-carboxylate] | 95 | 100 | 95 | 70 | 70 | 30 | 0 | 10 | 40 | 30 | 98 | 100 | 154 to 156 | – | – | – | –
COC(=O)c1nc(-c2ccc(Cl)cc2)cc(NC(C)=O)c1Cl [Compound 53, Methyl 4-acetamido-3-chloro-6-(4-chlorophenyl)pyridine-2-carboxylate] | – | – | – | 70 | 70 | – | 0 | 10 | 100 | 100 | 100 | 100 | 151 to 152 | – | – | – | –
